The nature of test [1]: Vaccinia infected cells, stage specific inhibitors, mcherry venus reporter fluorescence, confirmatory dose response (AID 1053168). The settings on record: Vaccinia-infected cells, mCherry/Venus stage reporter fluorescence; at 21 µM (top of the series).
Test [2] concerns Vaccinia-infected cells, mCherry/Venus stage reporter fluorescence. Described as above.
Setting [3] is: measured here: Venus reporter AC50.
[4] abbreviates: measured here: mCherry reporter AC50.

Drawing on PubChem BioAssay AID1053168 (Broad Institute, 2014), this text covers activity change, negative = inhibition and AC50 for 6 compounds.

Active and inactive are the calls of the source. The rule behind the calls is not given here.

By AC50 is commonly meant the concentration at which the activity in the assay is half-maximal.

On to `COc1ccccc1CN1CC[C@@H]2[C@@H](CO)Nc3ccc(-c4ccc(C(=O)N(C)C)cc4)cc3[C@@H]21`, for which the activity change, negative = inhibition in test [1] was -12.1% (inactive). Further, the concentration at half-maximal activity (AC50) in test [2] (setting [3]) and in test [2] (setting [4]) was greater than 42 µM in each case.
Take `C[C@H](O)C#Cc1ccc2c(c1)O[C@@H](CN(C)Cc1ccc(-c3ccccc3)cc1)[C@H](C)CN([C@H](C)CO)S2(=O)=O`: the activity change, negative = inhibition in test [1] is -20.1% (inactive). The compound also came in with an AC50 in test [2] (setting [4]) greater than 42 µM.
For the compound `C[C@H]1CCCCO[C@H](CN(C)S(=O)(=O)c2ccc(Cl)cc2)[C@@H](C)CN([C@@H](C)CO)C(=O)c2cc(NC(=O)Nc3ccc(F)cc3)ccc2O1`, the activity change, negative = inhibition in test [1] is -17.8% (inactive). Besides, the concentration at half-maximal activity (AC50) in test [2] (setting [3]) and in test [2] (setting [4]) was greater than 42 µM each time.
`C[C@H](O)C#Cc1ccc2c(c1)O[C@H](CN(C)Cc1ccc(-c3ccccc3)cc1)[C@H](C)CN([C@@H](C)CO)S2(=O)=O`: in test [1], the activity change, negative = inhibition was -17.3% (inactive). In addition, the AC50 in test [2] (setting [3]) and in test [2] (setting [4]) was greater than 42 µM each time.
Consider `CCCNC(=O)N(C)C[C@@H]1Oc2ncc(C#CC3CCCCC3)cc2C(=O)N([C@H](C)CO)C[C@@H]1C`, for which the activity change, negative = inhibition in test [1] is -19.2% (inactive). Further, the half-maximal activity concentration (AC50) in test [2] (setting [3]) is greater than 42 µM.
In the case of `C[C@@H]1CN([C@@H](C)CO)S(=O)(=O)c2ccc(C#C[C@@H](C)O)cc2O[C@@H]1CN(C)Cc1ccccc1`, the activity change, negative = inhibition in test [1] is -27% (inactive). Also, the half-maximal activity concentration (AC50) in test [2] (setting [3]) is greater than 42 µM.
